{
  "source": "patent US7388072B2",
  "about": "“MAGE peptides presented by HLA class II molecules” (priority 2001, dated 2008)",
  "key": {"[1]": {"molecular_target": "T1, DRB4 (Homo sapiens, UniProt P01903+P13762)", "T1 construct": "endogenous in cells", "test": "HLA-DR peptide binding assay (competition), DRB4"}, "[2]": {"molecular_target": "T2, DRB3 (Homo sapiens, UniProt P01903+P79483)", "T2 construct": "endogenous in cells", "test": "HLA-DR peptide binding assay (competition), DRB3"}, "[3]": {"molecular_target": "T3, DRB5 (Homo sapiens, UniProt P01903+Q30154)", "T3 construct": "endogenous in cells", "test": "HLA-DR peptide binding assay (competition), DRB5"}, "[4]": {"molecular_target": "T4, DR3 (Homo sapiens, UniProt P01903+P01911, A100K/A102G/A103R/A169T/F55Y/I96L/K41T/L162R/M171V/P40S/Q125H/Q178H/Q39Y/R42S/S66N/T106N/T262R/W38E/Y61H)", "T4 construct": "endogenous in cells", "test": "HLA-DR peptide binding assay (competition), DR3"}, "[5]": {"test_system": "CD4+ T cell clone 3", "test": "Recognition assay with peptides: IFN-γ production (ELISA) by CD4+ T cell clone 3 co-cultured with peptide-pulsed EBV-B cells", "assay_type": "cell-based, human", "conditions": "for IFN-γ production clone 3: 2 h with 5 μg/ml peptide, overnight co-culture", "procedure": "(§1) Recognition assays with peptides. Peptides were synthesized on solid phase using Fmoc for transient NH2-terminal protection and were characterized using mass spectrometry. All peptides were >90% pure, as indicated by analytical HPLC. Lyophilized peptides were dissolved at 5 mg/ml in 10 mM acetic acid and 10% DMSO, and stored at −20° C. EBV-B cells were distributed at 20,000 cells per round-bottomed microwell and incubated for 2 h at 37° C. in the presence of the different peptides, the indicated concentrations representing their concentrations during the incubation step. CD4^+ T lymphocytes (5,000) were added in 100 μl of complete IMDM (Gibco BRL) medium supplemented with IL-2 (25 U/ml). Supernatants were harvested after 20 h of co-culture and IFN-γ production was measured by ELISA. The peptides used in FIG. 6 correspond to the MAGE-1260-275, MAGE-2267-282, MAGE-3267-282, MAGE-4268-283, MAGE-6267-282, MAGE-10292-307, MAGE-11270-285, and MAGE-12267-282 protein sequences.\n(§2) We tested for recognition by each of the three clones autologous EBV-B cells pulsed with a set of peptides of 16 amino acids, overlapping by 12 residues and covering the complete MAGE-3 sequence. DDHK2 EBV-B cells were distributed in microwells (2×10^4 cells) and incubated for 2 h with the indicated concentrations of peptides. 5×10^3 cells from each autologous CD4^+ T cell clone were added and the presence of IFN-γ in the supernatant was measured by ELISA after overnight co-culture. The results shown in FIG. 6 represent the average of triplicate co-cultures."}, "[6]": {"test_system": "CD4+ T cell clone 2", "test": "Recognition assay with peptides: IFN-γ production (ELISA) by CD4+ T cell clone 2 co-cultured with peptide-pulsed EBV-B cells", "assay_type": "cell-based, human", "conditions": "for IFN-γ production clone 2: 2 h with 5 μg/ml peptide, overnight co-culture", "procedure": "as §1, §2"}, "[7]": {"test_system": "DR7", "test": "HLA-DR peptide binding assay (competition), DR7", "design": "species or system human"}, "[8]": {"test_system": "DR11", "test": "HLA-DR peptide binding assay (competition), DR11", "design": "species or system human"}, "[9]": {"molecular_target": "T5, DR4 (Homo sapiens, UniProt P01903+P01911, A100K/A169T/F76Y/I96L/K127E/L162R/M171V/N62H/P40V/Q125Y/R42H/S133A/S149N/S66Y/V115G/V209L/W38E)", "T5 construct": "endogenous in cells", "test": "HLA-DR peptide binding assay (competition), DR4"}, "[10]": {"molecular_target": "T6, DR15 (Homo sapiens, UniProt P01903+P01911)", "T6 construct": "endogenous in cells", "test": "HLA-DR peptide binding assay (competition), DR15"}, "[11]": {"conditions": "EBV-B cell line DDHK2 (DR1 DR15 DR51, DR1 positive)"}, "[12]": {"conditions": "EBV-B cell line LB650 (DR7 DR15 DR51 DR53, DR1 negative)"}, "[13]": {"conditions": "EBV-B cell line LB831 (DR1 DR7 DR53, DR1 positive)"}, "[14]": {"conditions": "EBV-B cell line LB1158 (DR1 DR13 DR52, DR1 positive)"}, "[15]": {"conditions": "EBV-B cell line LB1856 (DR15, DR1 negative)"}, "[16]": {"conditions": "EBV-B cell line LB1870 (DR15 DR53 DR7, DR1 negative)"}, "[17]": {"conditions": "EBV-B cell line LB2095 (DR13 DR15 DR51 DR52, DR1 negative)"}, "[18]": {"conditions": "EBV-B cell line LB2138 (DR1 DR13, DR1 positive)"}, "[19]": {"conditions": "FIG. 6, set of 16 amino acid peptides overlapping by 12 residues"}, "[20]": {"conditions": "ratio lower than 10 = high affinity, higher than 10 = intermediate binder"}},
  "data": [
    {"smiles": "CC(C)C[C@H](NC(=O)[C@H](C)NC(=O)[C@H](CCCNC(=N)N)NC(=O)[C@@H]1CCCN1C(=O)CNC(=O)[C@H](Cc1c[nH]c2ccccc12)NC(=O)[C@H](CC(C)C)NC(=O)[C@H](Cc1ccccc1)NC(=O)[C@H](CCC(=O)O)NC(=O)[C@H](Cc1ccc(O)cc1)NC(=O)[C@H](CS)NC(=O)[C@H](C)N)C(=O)N[C@H](C(=O)N[C@@H](CCC(=O)O)C(=O)N[C@H](C(=O)N[C@@H](CO)C(=O)O)[C@@H](C)O)C(C)C", "values": [
      {"measurement": "Ratios IC50 MAGE-3/IC50 reference", "setting": "[1]", "value": 70},
      {"measurement": "binding to purified HLA-DR molecules (in words)", "setting": "[1]; DRB4, competition assay", "value": "bound"},
      {"measurement": "binding to purified HLA-DR molecules (in words)", "setting": "[2]; competition assay", "value": "No binding was observed"},
      {"measurement": "IC50", "setting": "[2]; competition with biotinylated LOL 191-210 5 nM, pH 5.5, read-out: IC50 (nM) of MAGE-3267-282", "value": "> 10000", "unit": "nM"},
      {"measurement": "Ratios IC50 MAGE-3/IC50 reference", "setting": "[3]", "value": 11},
      {"measurement": "binding to purified HLA-DR molecules (in words)", "setting": "[3]; DRB5, competition assay", "value": "bound"},
      {"measurement": "binding to purified HLA-DR molecules (in words)", "setting": "[4]; competition assay", "value": "No binding was observed"},
      {"measurement": "IC50", "setting": "[4]; competition with biotinylated MT 2-16 100 nM, pH 4.5, read-out: IC50 (nM) of MAGE-3267-282", "value": "> 10000", "unit": "nM"},
      {"measurement": "IFN-γ production clone 3", "setting": "[5]; [11]", "value": ">4,000 pg/ml"},
      {"measurement": "IFN-γ production clone 3", "setting": "[5]; [12]", "value": 150, "unit": "pg/mL"},
      {"measurement": "IFN-γ production clone 3", "setting": "[5]; [13]", "value": "1,371 pg/ml"},
      {"measurement": "IFN-γ production clone 3", "setting": "[5]; [14]", "value": "1,698 pg/ml"},
      {"measurement": "IFN-γ production clone 3", "setting": "[5]; [15]", "value": 164, "unit": "pg/mL"},
      {"measurement": "IFN-γ production clone 3", "setting": "[5]; [16]", "value": 119, "unit": "pg/mL"},
      {"measurement": "IFN-γ production clone 3", "setting": "[5]; [17]", "value": 125, "unit": "pg/mL"},
      {"measurement": "IFN-γ production clone 3", "setting": "[5]; [18]", "value": "2,053 pg/ml"},
      {"measurement": "most efficiently recognized peptide for clone 3", "setting": "[5]; FIG. 6, comparison with shorter peptides", "value": "most efficiently recognized peptide"},
      {"measurement": "production of IFN-γ by clone 3 stimulated by peptide-pulsed autologous EBV-B cells", "setting": "[5]; [19]", "value": "stimulated the production of IFN-γ"},
      {"measurement": "recognition by clone 3 of peptide-loaded autologous EBV-B cells in the presence of anti-HLA-DR, -DP or -DQ antibodies", "setting": "[5]; data not shown", "value": "abolished by an anti-HLA-DR antibody, but not by antibodies against HLA-DP or HLA-DQ"},
      {"measurement": "IFN-γ production clone 2", "setting": "[6]; [11]", "value": ">4,000 pg/ml"},
      {"measurement": "IFN-γ production clone 2", "setting": "[6]; [12]", "value": 160, "unit": "pg/mL"},
      {"measurement": "IFN-γ production clone 2", "setting": "[6]; [13]", "value": "1,418 pg/ml"},
      {"measurement": "IFN-γ production clone 2", "setting": "[6]; [14]", "value": "2,029 pg/ml"},
      {"measurement": "IFN-γ production clone 2", "setting": "[6]; [15]", "value": 187, "unit": "pg/mL"},
      {"measurement": "IFN-γ production clone 2", "setting": "[6]; [16]", "value": 104, "unit": "pg/mL"},
      {"measurement": "IFN-γ production clone 2", "setting": "[6]; [17]", "value": 172, "unit": "pg/mL"},
      {"measurement": "IFN-γ production clone 2", "setting": "[6]; [18]", "value": "2,046 pg/ml"},
      {"measurement": "production of IFN-γ by clone 2 stimulated by peptide-pulsed autologous EBV-B cells", "setting": "[6]; [19]", "value": "stimulated the production of IFN-γ"},
      {"measurement": "recognition by clone 2 of peptide-loaded autologous EBV-B cells in the presence of anti-HLA-DR, -DP or -DQ antibodies", "setting": "[6]; data not shown", "value": "abolished by an anti-HLA-DR antibody, but not by antibodies against HLA-DP or HLA-DQ"},
      {"measurement": "binding to purified HLA-DR molecules (in words)", "setting": "[7]; competition assay", "value": "bound"},
      {"measurement": "IC50", "setting": "[7]; competition with biotinylated YKL 10 nM, pH 5, ± standard deviation, read-out: IC50 (nM) of MAGE-3267-282", "value": 1200, "unit": "nM"},
      {"measurement": "Ratios IC50 MAGE-3/IC50 reference", "setting": "[7]; [20]", "value": 120},
      {"measurement": "binding to purified HLA-DR molecules (in words)", "setting": "[8]; competition assay", "value": "bound"},
      {"measurement": "IC50", "setting": "[8]; competition with biotinylated HA 306-318 20 nM, pH 5, ± standard deviation, read-out: IC50 (nM) of MAGE-3267-282", "value": 150, "unit": "nM"},
      {"measurement": "Ratios IC50 MAGE-3/IC50 reference", "setting": "[8]; [20]", "value": 6},
      {"measurement": "Ratios IC50 MAGE-3/IC50 reference", "setting": "[9]", "value": 18},
      {"measurement": "binding to purified HLA-DR molecules (in words)", "setting": "[9]; DR4, competition assay", "value": "bound"},
      {"measurement": "Ratios IC50 MAGE-3/IC50 reference", "setting": "[10]", "value": 15},
      {"measurement": "binding to purified HLA-DR molecules (in words)", "setting": "[10]; DR15, competition assay", "value": "bound"}
    ]}
  ]
}
